Source: article PMC10531168, “Development of Stable Amino-Pyrimidine–Curcumin Analogs: Synthesis, Equilibria in Solution, and Potential Anti-Proliferative Activity” (International Journal of Molecular Sciences, 2023)
Where two headings read alike, the source gives them in different places.

Columns and labels:
[1] = tested on: PC3 cells; assay: Cell cycle analysis (propidium iodide cytofluorimetry); format: cell-based, human; conditions: PC3, 48 h at GI50 dose; control 14.6%
Experimental: (§1) To further investigate the effects of PY1 and PY3 on cell growth, we analyzed the cell cycle progression of LNCaP cells treated at GI50 doses for 48 h (Figure 6 and Figure S4). […] Compared to curcumin, PY1 induced a similar but enhanced effect on the cell cycle, with apoptosis and S-phase being 9.6% and 6.4%, respectively. […] This effect was similarly observed in PC3 and HCT116 cells, with G2/M cells increasing from 14.6% to 62% in PC3 and from 17% to 33% in HCT116 cells (Figure S4).
(§2) Cells were seeded into a 24-well plate at a density of 35,000 cells/well and harvested after 48 h of treatment at GI50 concentrations. Cell cycle analysis of cells stained with propidium iodide solution (propidium iodide 25 µg/mL, Na-Citrate 3.4 mM, NaCl 9.65 mM, NP-40 0.03%) was performed using an Attune Next cytofluorimeter (Thermo Fisher Scientific, Waltham, MA, USA). DMSO was used as the control. Statistical analysis was performed with GraphPad PRISM 6 software (GraphPad Prism), using two-way ANOVA as specified in the figure legends. Graph represents means ± standard errors of the mean (SEM), n = 3. Data were considered to be statistically significant if p < 0.05 (*), p < 0.01 (**), p < 0.001(***), and p < 0.0001 (****).

[2] = tested on: HCT116 cells; assay: as above; format: cell-based, human; conditions: HCT116, 48 h at GI50 dose; control 17%
Experimental: as §1, §2

[3] = tested on: LNCaP cells; assay: as above; format: cell-based, human; conditions: 48 h at GI50 dose; for % cells SubG1 (apoptotic cells): DMSO control 0.9; for % cells S: DMSO control 12.5; for % cells G2/M: DMSO control 18.4; for % cells G0/G1: DMSO control 65.1
Experimental: as §1, §2

[4] = tested on: PC3 cells; assay: Cell viability assay (Presto Blue), 48 h; format: cell-based, human; conditions: PC3, 48 h treatment, mean of three independent experiments, n.a. = not active at tested concentrations (≤100 µM)
Experimental: (§3) To determine the anti-proliferative activity of the compounds on cancer cells, we performed dose–response treatments for 48 h on androgen-sensitive and androgen-insensitive PCa cells (LNCaP and PC3, respectively), as well as CRC cell lines (HCT116 and HT29).
(§4) The human colon cell lines, HT29 (ATCC Cat# HTB-38) and HCT116 (ATCC Cat# CCL-247), were grown in DMEM High-Glucose Medium (Biowest, Nuaillé, France), while the human prostate cell lines, PC3 (ATCC Cat# CRL-1435) and LNCaP (ATCC Cat# CRL-1740), were grown in Ham’s F12 (Biowest, Nuaillé, France) and RPMI 1640 (Biowest, Nuaillé, France), respectively. All media were supplemented with 2 mM glutamine, 100 IU/mL penicillin, 100 μg/mL streptomycin, and 10% fetal bovine serum (FBS, Gibco, Fisher Scientific Italia, Segrate (MI), Italia)). The cells were grown at 37 °C in a humified 5% CO2 atmosphere.
(§5) HCT116, HT29, PC3, or LNCaP cells were seeded into a 96-well plate at a density of 5000 cells/well. Cells were treated with eight different concentrations of pyrimidine derivates and curcumin for 48 h, at concentrations starting at 30 μM with 2-fold serial dilutions for curcumin and starting at 100 μM with 3-fold serial dilutions for pyrimidine derivates. Cell viability was measured using Presto Blue cell viability reagent (#A13261, Thermo Fisher Scientific, Waltham, MA, USA), according to the manufacturer’s protocol. The concentration at which cellular growth is inhibited by 50% (GI50) was determined.

[5] = tested on: LNCaP cells; assay: Cell viability assay (Presto Blue), 48 h; format: cell-based, human; conditions: 48 h treatment, mean of three independent experiments, n.a. = not active at tested concentrations (≤100 µM)
Experimental: as §3, §4, §5

[6] = tested on: HCT116 cells; assay: Cell viability assay (Presto Blue), 48 h; format: cell-based; conditions: Homo sapiens, HCT-116; HCT116, 48 h treatment, mean of three independent experiments; n.a. = not active at tested concentrations (≤100 µM)
Experimental: as §3, §4, §5

[7] = tested on: HT29 cells; assay: Cell viability assay (Presto Blue), 48 h; format: cell-based; conditions: Homo sapiens, HT-29; HT29, 48 h treatment, mean of three independent experiments; n.a. = not active at tested concentrations (≤100 µM)
Experimental: as §3, §4, §5

[8] = UV-Vis pH-metric spectrophotometric titration, protonation constants (HypSpec); format: physicochemical; conditions: 298 K; for pKa: aqueous solution with <2% v/v methanol
Text: Pyrimidine derivatives can be considered weak bases, and the pyrimidine nitrogens are protonated in extremely acid conditions (pH < 1), while the NH2 group has a pKa around 5 depending on the electronic effects of the substituents on the aromatic rings. As a consequence, the amino-pyrimidine moiety is in the neutral form at physiological pH (7.4). Among the synthesized compounds, MPY1, MPY3, and PY1 are characterized by additional acid/base moieties, particularly a phenolic group in the meta position for MPY1 and PY1 and an additional primary aliphatic amine for MPY3. To estimate the protonation constants, UV-visible spectroscopy was preferred over potentiometry since the lower concentration range that is required allows it to work in an aqueous medium with a negligible percentage of methanol (<2% v/v). Figure 3 reports the UV-Vis pH-metric titration of MPY1 in the pH range of 2–11. In extremely acid conditions (pH 2, red spectrum), the amine group on the pyrimidine ring is fully protonated, and the molecule is positively charged (H2L^+). The maximum absorbance is observed at 400 nm, with a shoulder at 500 nm. […] Finally, in basic conditions (pH 11, blue spectrum) the phenolic group is deprotonated, and a negatively charged species is observed (L^−) with λmax at 406 nm. […] By plotting the absorbance value vs. pH at λmax, a titration curve is observed ([…]), with two equivalent points around pH = 5 and pH = 9. […] PY1 (Figure S3) is fully protonated below pH 5 (H3L+) and negatively charged in basic conditions (HL^−, L^2−). To estimate protonation constants and pKa values, spectrophotometric data were elaborated using Hypspec, and the logβ values, together with pKa, are reported in Table 1.
To perform spectrophotometric titrations, ligands (denoted generally as L in the following) were dissolved in methanol to give a mother solution (2.50 mM) that was then diluted in water to a final volume of 25 mL in order to obtain a 25/50 μM concentration, depending on the compound, in order to have a maximum absorbance in a range of 0.4–1. The pH (initial value ~5) was varied by adding small amounts (1 μL) of concentrated NaOH/HCl (4 M) in order to investigate the spectral behavior of the 2–11 pH range. In these conditions, the volume variations were negligible. A constant ionic strength (NaNO3, 0.1 M) was maintained in all the experiments. The overall protonation constants (βqr) are defined by the following equations:qL^l− + rH^+ ⇌ [LqHr]^(r − ql)(1) (2) βqr=LqHr^r − ql/L^−l]^q · H^+]^r where L is the ligand in the completely dissociated form and H is a proton. βqr values were refined from spectrophotometric data using least-squares calculations in HypSpec. The results of least-squares calculations include the standard deviations and correlation coefficients of the refined parameters. The quantities were obtained by performing error propagation calculations from the experimental errors on the parameters. The stability constant refinement furnishes least-squares estimates of the standard deviation, σ, of the stability constant, β. The error on logβ is calculated as follows: σ(logβ) = [log(β + σ) − log(β − σ)]/2, as previously reported.

[9] = tested on: HT29 cells; parameters: method as in PMID 27614381; conditions: read-out: GI50 (printed IG50), HT29 cell proliferation; cited from earlier work
[10] = parameters: method as in doi:10.1016/S0020-1693(01)00687-9; conditions: cited from earlier work
[11] = aqueous solution, spectrophotometric data, HypSpec
[12] = logβ11 (MPY1, MPY3) or logβ12 − logβ11 (PY1), read-out: pKa2
[13] = logβ12 − logβ11 (MPY1, MPY3) or logβ13 − logβ12 (PY1), read-out: pKa1

GI50 ([4]; Homo sapiens, PC-3, 48 h) | GI50 ([5]; Homo sapiens, 48 h) | GI50 [6] | GI50 [7] | logβ11 (overall protonation constant) [8, 11] | logβ12 (overall protonation constant) [8, 11] | pKa [8, 12] | pKa [8, 13] | Compound | % cells SubG1 (apoptotic cells) [3] | % cells S [3] | % cells G2/M [3] | % cells G0/G1 [3] | further results
14.7 ± 0.9 µM | 12.1 ± 2 µM | 37.9 ± 11.6 µM | 19.7 ± 1.1 µM |  |  |  |  | COc1ccc(/C=C/c2cc(/C=C/c3ccc(OC)c(OC)c3)nc(N)n2)cc1OC [PY3, 4,6-bis[(E)-2-(3,4-dimethoxyphenyl)ethenyl]pyrimidin-2-amine] | 4.7% | 4.7% | 54.6% | 32.8% | % cells G2/M [1]: 62%; % cells G2/M [2]: 33%
84.4 ± 0.1 µM | 73.1 ± 14 µM |  |  |  |  |  |  | COc1ccc(/C=C/c2cc(C)nc(N)n2)cc1OC [MPY2, 4-[(E)-2-(3,4-dimethoxyphenyl)ethenyl]-6-methylpyrimidin-2-amine] |  |  |  |  | 
 | 73.9 ± 9.9 µM |  |  | 8.99 ± 0.01 | 13.72 ± 0.01 | 8.99 ± 0.01 | 4.73 ± 0.02 | COc1cc(/C=C/c2cc(C)nc(N)n2)ccc1O [MPY1, 4-[(E)-2-(2-amino-6-methylpyrimidin-4-yl)ethenyl]-2-methoxyphenol] |  |  |  |  | 
 |  |  |  |  |  |  |  | COc1ccc(/C=C/C(=O)CC(=O)/C=C/c2ccc(OC)c(OC)c2)cc1OC [DiMC, bis-dimethoxycurcumin] |  |  |  |  | GI50 [9]: 43.4 µM
 | 68.8 ± 21.7 µM | 98 ± 13.6 µM |  | 8.62 ± 0.01 | 13.04 ± 0.01 | 8.62 ± 0.01 | 4.43 ± 0.02 | COc1cc(/C=C/c2cc(C)nc(N)n2)ccc1OCCCN [MPY3, 4-{(E)-2-[4-(3-aminopropoxy)-3-methoxyphenyl]ethenyl}-6-methylpyrimidin-2-amine] |  |  |  |  | 
 |  |  |  |  |  |  |  | 4,6-bis[(E)-2-(3-methoxyphenyl)ethenyl]pyrimidin-2-amine [PY4] |  |  |  |  | GI50 [4]: 82.8 ± 23.4 µM
23.9 ± 0.4 µM | > 30 µM | 13.6 ± 2.9 µM | > 30 µM |  |  |  |  | COc1cc(/C=C/C(=O)CC(=O)/C=C/c2ccc(O)c(OC)c2)ccc1O [Curcumin, (1E,6E)-1,7-bis (4-hydroxy-3-methoxyphenyl)-1,6-heptadiene-3,5-dione] | 7.2% | 9.7% | 22.3% | 58.4% | pKa of keto-enol moiety [10]: 8.56
~24 µM | ~24 µM | 19.9 ± 3.3 µM | 45.3 ± 4.1 µM | 10.27 ± 0.03 | 19.30 ± 0.02 | 9.04 ± 0.05 | 4.86 ± 0.07 | COc1cc(/C=C/c2cc(/C=C/c3ccc(O)c(OC)c3)nc(N)n2)ccc1O [PY1, 4,4′-{(2-aminopyrimidine-4,6-diyl)di[(E)ethene-2,1-diyl]}bis(2-methoxyphenol)] | 9.6% | 6.4% | 24.8% | 57.8% | GI50 [4]: 23.5 ± 9.7 µM; GI50 [5]: 24.1 ± 8.5 µM; logβ13 (overall protonation constant) [8, 11]: 24.17 ± 0.05; pKa ([8]; pKa3 = logβ11, read-out: pKa3): 10.27 ± 0.03
